In ChEMBL document CHEMBL1148095, “6-Hydroxymanzamine A and 3,4-dihydromanzamine A, new alkaloids from the Okinawan marine sponge Amphimedon Sp” (J Nat Prod, 1994):
≈ marks a conversion by molar mass, not a printed value.

Assays:
[1] = test system: Micrococcus luteus; test: Antibacterial activity against Sarcina lutea; type: functional
[2] = test system: L1210; test: Cytotoxicity against mouse L1210 cells; type: functional, cell-based
[3] = test system: KB; test: Cytotoxicity against human KB cells; type: functional, cell-based

MIC [1] [mg/L] | SMILES | IC50 [2] [mg/L] | IC50 [3] [mg/L]
1.25 (≈ 2.21 µM) | Oc1ccc2[nH]c3c(C4=C[C@@]5(O)CC/C=C\CCCCN6CCC4[C@]4(C[C@@H]7/C=C\CCCCN7[C@H]45)C6)nccc3c2c1 (stereo partly specified) | 1.5 (≈ 2.66 µM) | 2.5 (≈ 4.43 µM)
4 (≈ 7.26 µM) | O[C@]12C=C(C3=NCCc4c3[nH]c3ccccc43)[C@@H]3CCN(CCCC/C=C\CC1)C[C@@]31C[C@@H]3/C=C\CCCCN3[C@H]12 [3,4-DIHYDROMANZAMINE A] | 0.48 (≈ 0.871 µM) | 0.61 (≈ 1.11 µM)
